Experiment [1] relates to Primary cultures of skeletal muscle cells. The experiment is described as follows: Primary cultures of skeletal muscle cells treated with GTE and EGCG (MyHC staining, Western blot). It counts as cell-based, mice. As to the method:
GTE and EGCG also display unexpected pro myogenic properties. Primary cultures of skeletal muscle cells were established from both normal and dystrophic mice and treated with GTE and EGCG for 1-7 days. […] The amount of myotubes reached similar level with both agents compared to control thereafter. Western-blot analysis was performed on myotube cultures treated for 7 days.
Background: Immunoblotting shows a protein as a band on a membrane.

Experiment [2] deals with Utrophin A promoter linked to a luciferase reporter gene (H2K/mdx/Utro A reporter cell line). In words: Luciferase reporter assay (murine H2K cells). It counts as cell-based. The note with it: Mus musculus; final concentration of 10 μM; incubated for a further 48 hrs. As to the method: The cell line used for the screen is an immortalized mdx mouse H2K cell line that has been stably transfected with a plasmid containing ≈5 kb fragment of the Utrophin A promoter including the first untranslated […] linked to a luciferase reporter gene.
Under conditions of low temperature and interferon containing media, the cells remain as myoblasts. These are plated into 96 well plates and cultured in the presence of compound for three days. The level of luciferase is then determined by cell lysis and reading of the light output from the expressed luciferase gene utilising a plate luminometer.
The H2K/mdx/Utro A reporter cell line was passaged twice a week until ≦30% confluent. The cells were grown at 33° C. in the presence of 10% CO2
To remove the myoblasts for platting, they were incubated with Trypsin/EDTA until the monolayer started to detach.
• DMEM Gibco 41966 • 20% FCS • 1% Pen/Strep • 1% glutamine • 10 mls Chick embryo extract • Interferon(1276 905 Roche) Add fresh 10 μl/50 mls medium
The H2K/mdx/Utro A reporter cell line cells were plated out into 96 well plates (Falcon 353296, white opaque) at a density of approximately 5000 cells/well in 190 μl normal growth medium. The plates were then incubated at 33° C. in the presence of 10% CO2 for 24 hrs.
Compounds were dosed by adding 10 μl of diluted compound to each well giving a final concentration of 10 μM. The plates were then incubated for a further 48 hrs
Cells were then lysed in situ following the manufacture's protocols (Promega Steady-Glo Luciferase Assay System (E2520). Then counted for 10 seconds using a plate luminometer (Victor1420).

Another experiment deals with mdx hearts. The conditions noted are these: cited from earlier work.
[3] abbreviates: Western blot, myotube cultures treated for 7 days.

With `O=C(O[C@@H]1Cc2c(O)cc(O)cc2O[C@@H]1c1cc(O)c(O)c(O)c1)c1cc(O)c(O)c(O)c1` [EGCG, epigallocatechin gallate], in experiment [1] (setting [3]), the expression of desmin entry is given as “down-regulated”; the “expression of muscle-specific proteins (dystrophin in control cultures, sarcomeric alpha actinin, MyHC)” value was “promoted the expression”; the myogenin expression entry was “unchanged”. The “rate of formation of myotubes (in situ staining of MyHC)” value in experiment [1] (within the first 2-4 days of application, normal and dystrophic mice cells) was “concentration-dependently stimulated”. For the compound `Nc1ccc2nn(-c3ccc(Cl)cc3)nc2c1` [Example 38, 2-(4-chlorophenyl)-2H-benzo[d][1,2,3]triazol-5-amine], in experiment [2], the activity at 10 µM is less than 200%. Still for that read-out and setting: to `CC(=O)Nc1ccc2nn(-c3ccc(Cl)cc3)nc2c1` [Example 39, N-(2-(4-chlorophenyl)-2H-benzo[d][1,2,3]triazol-5-yl)acetamide] belongs greater than 401%; to `Nc1ccc2nn(-c3ccc(N4CCCCC4)cc3)nc2c1` [Example 40, 2-(4-(piperidin-1-yl)phenyl)-2H-benzo[d][1,2,3]triazol-5-amine], 201 to 300%; to `CN(C)c1ccc(-n2nc3ccc(N)cc3n2)cc1` [Example 41, 2-(4-(dimethylamino)phenyl)-2H-benzo[d][1,2,3]triazol-5-amine], 301 to 400%. Same read-out and setting: to `CN1CCN(c2ccc(-n3nc4ccc(N)cc4n3)cc2)CC1` [Example 42, 2-(4-(4-methylpiperazin-1-yl)phenyl)-2H-benzo[d][1,2,3]triazol-5-amine] belongs less than 200%. As to `Cc1cc2nn(-c3ccc(Cl)cc3)nc2cc1N` [Example 43, 2-(4-chlorophenyl)-6-methyl-2H-benzo[d][1,2,3]triazol-5-amine], in experiment [2], the activity at 10 µM is greater than 401%. Still for that read-out and setting: with `CS(=O)(=O)c1ccc2cn(-c3ccc(Cl)cc3)nc2c1` [Example 44, 2-(4-chlorophenyl)-6-(methylsulfonyl)-2H-indazole] the figure was 201 to 300%; with `O=[N+]([O-])c1ccc2cn(-c3ccc(Cl)cc3)nc2c1` [Example 45, 2-(4-chlorophenyl)-6-nitro-2H-indazole], less than 200%; with `CC(C)C(=O)Nc1ccc2cn(-c3ccc(Cl)cc3)nc2c1` [Example 46, N-(2-(4-chlorophenyl)-2H-indazol-6-yl)isobutyramide], greater than 401%.

With `CS(=O)(=O)c1ccc2nn(-c3ccc(Cl)cc3)[n+]([O-])c2c1` [Example 47, 2-(4-chlorophenyl)-6-(methylsulfonyl)-2H-benzo[d][1,2,3]triazole 1-oxide], in experiment [2], the activity at 10 µM was less than 200%. The same measure, in the same setting: with `Clc1ccc(-n2cc3ccccc3n2)cc1` [Example 48, 2-(4-chlorophenyl)-2H-indazole] the figure was greater than 401%; with `CS(=O)(=O)c1ccc2nn(-c3ccc(Cl)cc3)nc2c1` [Example 49, 2-(4-chlorophenyl)-5-(methylsulfonyl)-2H-benzo[d][1,2,3]triazole], less than 200%; with `CS(=O)(=O)c1ccc2nn(-c3ccc(Cl)c(Cl)c3)nc2c1` [Example 50, 2-(3,4-dichlorophenyl)-5-(methylsulfonyl)-2H-benzo[d][1,2,3]triazole], 201 to 300%. Same read-out and setting: to `CCS(=O)(=O)c1ccc2nn(-c3ccc(Cl)c(Cl)c3)nc2c1` [Example 51, 2-(3′,4′-dichlorophenyl)-5-(ethylsulfonyl)-benzotriazole] belongs 301 to 400%. Still for that read-out and setting: with `CCS(=O)(=O)c1ccc2nn(-c3ccc(Cl)cc3)nc2c1` [Example 52, 2-(4′-chlorophenyl)-5-(ethylsulfonyl)-benzotriazole] the figure was greater than 401%; with `CC(C)C(=O)Nc1ccc2nn(-c3ccc(Cl)c(Cl)c3)nc2c1` [Example 53, N-(2-(3,4-Dichlorophenyl)-2H-benzo[d][1,2,3]triazol-5-yl)isobutyramide], greater than 401%; with `CS(=O)(=O)c1ccc2nn(-c3ccc4ccccc4c3)[n+]([O-])c2c1` [Example 54, 6-(Methylsulfonyl)-2-(naphthalen-2-yl)-2H-benzo[d][1,2,3]triazole 1-oxide], 201 to 300%. As for `CS(=O)(=O)c1ccc2nn(-c3ccc4ccccc4c3)nc2c1` [Example 55, 5-(Methylsulfonyl)-2-(naphthalen-2-yl)-2H-benzo[d][1,2,3]triazole], the activity at 10 µM in experiment [2] was greater than 401%. Take `CC(C)S(=O)(=O)c1ccc2cn(-c3ccc(Cl)cc3)nc2c1` [Example 56, 2-(4′-Chlorophenyl)-6-(isopropylsulfonyl)-2H-indazole]: the activity at 10 µM in experiment [2] is greater than 401%.

`Cc1ccc(-n2nc3ccc(N)cc3n2)cc1C` [Example 63, 2-(3,4-dimethylphenyl)-2H-benzo[d][1,2,3]triazol-5-amine]: the activity at 10 µM in experiment [2] was less than 200%. Take `CCOc1ccc(-n2nc3cc(C)c(N)cc3n2)cc1` [Example 64, 2-(4-ethoxyphenyl)-6-methyl-2H-benzo[d][1,2,3]triazol-5-amine]: in experiment [2], the activity at 10 µM lay in the range of 201 to 300%.

Consider `Cc1ccc(-n2nc3cc(C)c(N)cc3n2)cc1` [Example 65, 6-methyl-2-p-tolyl-2H-benzo[d][1,2,3]triazol-5-amine], for which the activity at 10 µM in experiment [2] is 201 to 300%. As for `COc1ccc(-n2nc3cc(C)c(NC(C)=O)cc3n2)cc1` [Example 66, N-(2-(4-methoxyphenyl)-6-methyl-2H-benzo[d][1,2,3]triazol-5-yl)acetamide], the activity at 10 µM in experiment [2] was less than 200%. Same read-out and setting: to `CC(=O)Nc1cc2nn(-c3ccccc3)nc2cc1C` [Example 67, N-(6-methyl-2-phenyl-2H-benzo[d][1,2,3]triazol-5-yl)acetamide] belongs 201 to 300%. Still for that read-out and setting: with `CCc1ccc(-n2nc3ccc(N)cc3n2)cc1` [Example 68, 2-(4-ethylphenyl)-2H-benzo[d][1,2,3]triazol-5-amine] the figure was 201 to 300%. For the compound `CC(=O)Nc1ccc2nn(-c3ccc(F)cc3)nc2c1` [Example 69, N-(2-(4-fluorophenyl)-2H-benzo[d][1,2,3]triazol-5-yl)acetamide], in experiment [2], the activity at 10 µM is 201 to 300%. For `CCCc1nn(C)c2c(=O)[nH]c(-c3cc(S(=O)(=O)N4CCN(C)CC4)ccc3OCC)nc12` [sildenafil], in the experiment on mdx hearts, the myocardial contractile performance entry is “prevents deterioration”.

The values above are taken from patent US20100168072A1, “Drug Combinations for the Treatment of Duchenne Muscular Dystrophy” (BIOMARIN IGA LIMITED, priority 2007, published 2010).
